Data on six molecules can be found in patent publication US9044520B2, “Compound accumulating in inflammatory site, diagnostic agent containing the compound in labeled state and its precursor compound for labeling” (Nihon Medi-Physics Co., Ltd., priority 2011, dated 2015).

The Ki is the equilibrium dissociation constant of an inhibitor or competing ligand from its target.

Non-standard residues stand in square brackets, D forms with d. Residues, ends and D or L forms follow the SMILES beside them. *: point of attachment. Benzoyl(4-F) = O=C(c1ccc(F)cc1)*; Nle = CCCC[C@H](N)C(=O)O; For = O=C*

The assay concerns the target T1, formylated peptide receptor (FPR) (Homo sapiens, UniProt P21462).
T1 sequence (P21462 1-350): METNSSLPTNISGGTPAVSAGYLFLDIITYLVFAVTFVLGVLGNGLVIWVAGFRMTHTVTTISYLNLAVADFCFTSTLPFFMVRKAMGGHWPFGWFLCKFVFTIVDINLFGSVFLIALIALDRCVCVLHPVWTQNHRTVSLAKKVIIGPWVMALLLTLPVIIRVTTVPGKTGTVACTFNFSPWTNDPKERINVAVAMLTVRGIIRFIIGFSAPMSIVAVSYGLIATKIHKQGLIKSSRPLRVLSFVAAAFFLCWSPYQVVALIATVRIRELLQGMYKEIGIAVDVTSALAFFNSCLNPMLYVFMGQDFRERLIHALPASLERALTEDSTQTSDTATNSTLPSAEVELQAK
Description: Binding assay/inhibition assay: binding affinity for formylated peptide receptor (FPR), displacement of [125I] Trp-Lys-Tyr-Met-Val-DMet. The settings on record: read-out: Ki (Mean value ± SD). The protocol:
Each peptide having a different concentration (DMSO solution, 10 μL), 2 nmol/L [^125I] Trp-Lys-Tyr-Met-Val-DMet (10 μL) as radioligand, and FPR (10 μL) were added to a binding buffer (170 μL) and incubated at 25° C. for 1 hour, followed by collection by filtration (cell harvesters) using a GF/C filter coated with a polylysine buffer. After washing, radioactivity left on the filter was measured using a γ counter. [^125I] Trp-Lys-Tyr-Met-Val-DMet means a positive control having affinity for FPR and was obtained from PerkinElmer Co., Ltd. for use.
*Binding buffer: 50 mmol/L Hepes, pH 7.4, 5 mmol/L MgCl2, 1 mmol/L CaCl2, 0.2% BSA
Wash buffer: 50 mmol/L Hepes, pH 7.4, 500 mmol/L NaCl, 0.1% BSA
Polylysine buffer: Poly-L-lysine hydrobromate 100 mg/wash buffer 100 mL
Ki values in the table were calculated using the following equation (1).
IC50: Calculation from Graph Pad
[L]: Concentration of Radioligand (Adjusted to 0.2 nM)
On the technique in general: Displacement assays read how much labelled ligand stays bound in the presence of the test substance.

For the molecule `CCCC[C@H](NC(=O)[C@H](Cc1ccccc1)NC(=O)[C@H](CC(C)C)NC(=O)[C@H](CCSC)NC=O)C(=O)N[C@@H](Cc1ccc(O)cc1)C(=O)N[C@H](CCCCNC(=O)c1ccc(F)cc1)C(N)=O` [Peptide 1, formyl-Met-Leu-Phe-Nle-Tyr-DLys-ε([^19F]FB)-NH2] (For-MLF[Nle]Y[dK](Benzoyl(4-F))-NH2), the Ki worked out at 0.04 ± 0.04 nM. Consider `CCCC[C@H](NC=O)C(=O)N[C@@H](CC(C)C)C(=O)N[C@@H](Cc1ccccc1)C(=O)N[C@@H](CCCC)C(=O)N[C@@H](Cc1ccc(O)cc1)C(=O)N[C@H](CCCCNC(=O)c1ccc(F)cc1)C(N)=O` [Peptide 2, formyl-Nle-Leu-Phe-Nle-Tyr-DLys-ε([^19F]FB)-NH2] (For-[Nle]LF[Nle]Y[dK](Benzoyl(4-F))-NH2), for which the inhibitory constant (Ki) is 0.4 ± 0.36 nM. The result for `CCCC[C@H](NC(=O)[C@H](Cc1ccccc1)NC(=O)[C@H](CC(C)C)NC(=O)[C@H](CCSC)NC=O)C(=O)N[C@@H](Cc1ccc(O)cc1)C(=O)N[C@H](CCCCN)C(=O)N[C@H](CCCCNC(=O)c1ccc(F)cc1)C(N)=O` [Peptide 3, formyl-Met-Leu-Phe-Nle-Tyr-DLys-DLys-ε([^19F]FB)-NH2] (For-MLF[Nle]Y[dK][dK](Benzoyl(4-F))-NH2) reads 0.46 ± 0.07 nM. As for `CCCC[C@H](NC=O)C(=O)N[C@@H](CC(C)C)C(=O)N[C@@H](Cc1ccccc1)C(=O)N[C@@H](CCCC)C(=O)N[C@@H](Cc1ccc(O)cc1)C(=O)N[C@H](CCCCN)C(=O)N[C@H](CCCCNC(=O)c1ccc(F)cc1)C(N)=O` [Peptide 4, formyl-Nle-Leu-Phe-Nle-Tyr-DLys-DLys-ε([^19F]FB)-NH2] (For-[Nle]LF[Nle]Y[dK][dK](Benzoyl(4-F))-NH2), the Ki was 1.22 ± 0.4 nM. On to `CCCC[C@H](NC(=O)[C@H](Cc1ccccc1)NC(=O)[C@H](CC(C)C)NC(=O)[C@H](CCSC)NC=O)C(=O)N[C@@H](Cc1ccc(O)cc1)C(=O)N[C@H](CCCCNC(=O)c1ccc(F)cc1)C(=O)N[C@H](CCCCN)C(N)=O` [Peptide 5, formyl-Met-Leu-Phe-Nle-Tyr-DLys-ε([^19F]FB)-DLys-NH2] (For-MLF[Nle]Y[dK](Benzoyl(4-F))[dK]-NH2), for which the Ki is 0.63 ± 0.14 nM.

For the molecule `CCCC[C@H](NC=O)C(=O)N[C@@H](CC(C)C)C(=O)N[C@@H](Cc1ccccc1)C(=O)N[C@@H](CCCC)C(=O)N[C@@H](Cc1ccc(O)cc1)C(=O)N[C@H](CCCCN)C(=O)N[C@H](CCCCN)C(=O)N[C@H](CCCCNC(=O)c1ccc(F)cc1)C(N)=O` [Peptide 6, formyl-Nle-Leu-Phe-Nle-Tyr-DLys-DLys-DLys-ε([^19F]FB)-NH2, reference compound] (For-[Nle]LF[Nle]Y[dK][dK][dK](Benzoyl(4-F))-NH2), the inhibition constant Ki is 21.9 ± 12.7 nM.
